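Assay format: 96-well plates, 48-hour exposure. GI50 = concentration required for 50% inhibition of growth.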 The source made the active and inactive calls. No stated cut-off is given here; in the data, active = GI50 up to about 1.1 µM and inactive = higher.
Columns and labels:
Assay in all cases: growth of human tumour cells (NCI), 48 h
[1] = test system: NCI-H460
[2] = test system: OVCAR-4
[3] = test system: SK-MEL-5
[4] = test system: HCT-15
[5] = test system: SK-OV-3
[6] = test system: A549
[7] = test system: UACC-257
[8] = test system: NCI/ADR-RES
[9] = test system: KM12
[10] = test system: LOX IMVI
[11] = test system: RPMI-8226
[12] = test system: HCC 2998
[13] = test system: U-251
[14] = test system: CAKI-1
[15] = test system: SF-295
[16] = test system: HCT-116
[17] = test system: HOP-92
[18] = test system: SF-539
[19] = test system: PC-3
[20] = test system: HOP-62
[21] = test system: NCI-H23
[22] = test system: SF-268
[23] = test system: Hs-578T
[24] = test system: SNB-75
[25] = test system: SK-MEL-28
[26] = test system: EKVX
[27] = test system: MOLT-4
[28] = test system: UACC-62
[29] = test system: 786-0
[30] = test system: MCF7
[31] = test system: HT-29
[32] = test system: IGROV-1
[33] = test system: MDA-MB-435
[34] = test system: T47D
[35] = test system: COLO 205
[36] = test system: UO-31
[37] = test system: CCRF-CEM
[38] = test system: SK-MEL-2
[39] = test system: SNB-19
[40] = test system: NCI-H522
[41] = test system: ACHN
[42] = test system: SN12C
[43] = test system: NCI-H226
[44] = test system: SR
[45] = test system: SW-620
[46] = test system: OVCAR-5
[47] = test system: RXF 393
[48] = test system: OVCAR-8
[49] = test system: OVCAR-3
[50] = test system: MDA-N
[51] = test system: TK-10
[52] = test system: K562
[53] = test system: DU-145
[54] = test system: MDA-MB-231
[55] = test system: HL-60
[56] = test system: Malme-3M
[57] = test system: A498
[58] = test system: M14

C=C1C(=O)O[C@H]2C/C(C)=C/CC[C@]3(C)CCC[C@](C)(CC[C@@H]12)O3
GI50 [1]: 6.79 µM (inactive) | GI50 [2]: 15.1 µM (inactive) | GI50 [3]: 6.44 µM (inactive) | GI50 [4]: 10.8 µM | GI50 [5]: 22.2 µM (inactive) | GI50 [6]: 16.6 µM (inactive) | GI50 [7]: 8.85 µM (inactive) | GI50 [8]: 7.91 µM (inactive) | GI50 [9]: 8.43 µM (inactive) | GI50 [10]: 12.2 µM (inactive) | GI50 [11]: 5.93 µM (inactive) | GI50 [12]: 7.24 µM (inactive) | GI50 [13]: 8.97 µM (inactive) | GI50 [14]: 12 µM (inactive) | GI50 [15]: 21.9 µM (inactive) | GI50 [16]: 8.69 µM (inactive) | GI50 [17]: 6.46 µM (inactive) | GI50 [18]: 9.48 µM (inactive) | GI50 [19]: 12.6 µM (inactive) | GI50 [20]: 20.5 µM (inactive) | GI50 [21]: 11.3 µM (inactive) | GI50 [22]: 7.8 µM (inactive) | GI50 [23]: 8.69 µM (inactive) | GI50 [24]: 11.9 µM (inactive) | GI50 [25]: 7.52 µM (inactive) | GI50 [26]: 9.04 µM (inactive) | GI50 [27]: 6.71 µM (inactive) | GI50 [28]: 8.69 µM (inactive) | GI50 [29]: 5.77 µM (inactive) | GI50 [30]: 13 µM (inactive) | GI50 [31]: 8.26 µM (inactive) | GI50 [32]: 6.59 µM (inactive) | GI50 [33]: 7.01 µM (inactive) | GI50 [34]: 9.71 µM (inactive) | GI50 [35]: 6.4 µM (inactive) | GI50 [36]: 8.69 µM (inactive) | GI50 [37]: 0.828 µM (active) | GI50 [38]: 8.51 µM (inactive) | GI50 [39]: 15.8 µM (inactive) | GI50 [40]: 6.35 µM (inactive) | GI50 [41]: 8.99 µM (inactive) | GI50 [42]: 12.7 µM (inactive) | GI50 [43]: 11.9 µM (inactive) | GI50 [44]: 4.61 µM (inactive) | GI50 [45]: 7.71 µM (inactive) | GI50 [46]: 13.7 µM (inactive) | GI50 [47]: 8.09 µM (inactive) | GI50 [48]: 7.64 µM (inactive) | GI50 [49]: 9.53 µM (inactive) | GI50 [50]: 14.6 µM (inactive) | GI50 [51]: 8.38 µM (inactive) | GI50 [52]: 8.49 µM (inactive) | GI50 [53]: 15.2 µM (inactive) | GI50 [54]: 13.3 µM (inactive)

OC1(c2ccc(Cl)cc2)c2ccc3ccccc3c2C2=N[C@H]3CCCC[C@@H]3N21 (stereo partly specified)
GI50 [1]: 13.3 µM (inactive) | GI50 [2]: > 100 µM (inactive) | GI50 [3]: 37 µM (inactive) | GI50 [4]: 4.75 µM | GI50 [55]: 5.69 µM (inactive) | GI50 [5]: 14 µM (inactive) | GI50 [6]: 10 µM (inactive) | GI50 [8]: 1.63 µM (inactive) | GI50 [9]: 5.16 µM (inactive) | GI50 [10]: 3.24 µM (inactive) | GI50 [11]: 7.73 µM (inactive) | GI50 [56]: 0.284 µM (active) | GI50 [57]: 20.3 µM (inactive) | GI50 [13]: 5.82 µM (inactive) | GI50 [14]: 12.2 µM (inactive) | GI50 [15]: 3.64 µM (inactive) | GI50 [16]: 3.27 µM (inactive) | GI50 [17]: 16.9 µM (inactive) | GI50 [58]: 2.52 µM (inactive) | GI50 [18]: 5.71 µM (inactive) | GI50 [19]: 6.32 µM (inactive) | GI50 [20]: 2.54 µM (inactive) | GI50 [21]: 37 µM (inactive) | GI50 [22]: 9.02 µM (inactive) | GI50 [23]: 1.19 µM (inactive) | GI50 [25]: > 100 µM (inactive) | GI50 [26]: 3.09 µM (inactive) | GI50 [27]: 8.99 µM (inactive) | GI50 [28]: 7.93 µM (inactive) | GI50 [30]: 8.45 µM (inactive) | GI50 [32]: 13.5 µM (inactive) | GI50 [33]: 10.7 µM (inactive) | GI50 [34]: 3.13 µM (inactive) | GI50 [35]: 5.81 µM (inactive) | GI50 [36]: 5.73 µM (inactive) | GI50 [37]: 21.7 µM (inactive) | GI50 [38]: 38.5 µM (inactive) | GI50 [39]: 36.8 µM (inactive) | GI50 [40]: 10.3 µM (inactive) | GI50 [41]: 18.3 µM (inactive) | GI50 [42]: 38.5 µM (inactive) | GI50 [43]: 43.8 µM (inactive) | GI50 [45]: 16.8 µM (inactive) | GI50 [46]: 3.76 µM (inactive) | GI50 [47]: 3.5 µM (inactive) | GI50 [48]: 1.55 µM (inactive) | GI50 [49]: 1.63 µM (inactive) | GI50 [50]: 10.6 µM (inactive) | GI50 [51]: 1.52 µM (inactive) | GI50 [52]: 13.2 µM (inactive) | GI50 [53]: 3.39 µM (inactive) | GI50 [54]: 18 µM (inactive)

— ChEMBL document CHEMBL1201862, “PubChem BioAssay data set” (2004)
